ChEMBL document CHEMBL5104126, “Discovery of 2,3-dihydro-1H-pyrrolo[3,4-b]quinolin-1-one derivatives as possible antileishmanial agents” (RSC Med Chem, 2022)

Legend:
Leishmania donovani [1] = assay: Antileishmanial activity against Leishmania donovani MHOM/IN/80/Dd8 amastigotes harboring luciferase gene infected in mouse J774 cells assessed as inhibition of parasite viability incubated for 72 hrs by Steady-Glo reagent based luciferase assay relative to control; type: functional, organism-based; conditions: MHOM/IN/80/Dd8, J774, 72 h
Leishmania donovani [2] = assay: Antileishmanial activity against Leishmania donovani MHOM/IN/80/Dd8 promastigotes harboring luciferase gene infected in mouse J774 cells assessed as inhibition of parasite viability incubated for 72 hrs by Steady-Glo reagent based luciferase assay relative to control; type: functional, organism-based; conditions: MHOM/IN/80/Dd8, J774, 72 h
[3] = Cytotoxicity against mouse macrophage J774 cells assessed as inhibition of cell viability incubated for 72 hrs by MTT assay; type: toxicity, cell-based
[4] = Cytotoxicity against human HepG2 cells assessed as inhibition of cell viability incubated for 72 hrs by MTT assay; type: toxicity, cell-based
[5] = Selectivity index, ratio of CC50 for cytotoxicity against mouse macrophage J774 cells to IC50 for antileishmanial activity against Leishmania donovani MHOM/IN/80/Dd8 amastigotes harboring luciferase gene infected in mouse J774 cells; type: toxicity, cell-based; conditions: read-out: Ratio CC50/IC50
[6] = Selectivity index, ratio of CC50 for cytotoxicity against human HepG2 cells to IC50 for antileishmanial activity against Leishmania donovani MHOM/IN/80/Dd8 amastigotes harboring luciferase gene infected in mouse J774 cells; type: toxicity, cell-based; conditions: read-out: Ratio CC50/IC50
Leishmania donovani [7] = assay: Antileishmanial activity against Leishmania donovani MHOM/IN/80/Dd8 promastigotes infected in Balb/c mouse assessed as inhibition organ parasite burden in liver at 25 mg/kg, ip for 7 days by Giemsa staining based microscopy; type: functional; conditions: MHOM/IN/80/Dd8, 168 h, time 7 day
Leishmania donovani [8] = assay: Antileishmanial activity against Leishmania donovani MHOM/IN/80/Dd8 promastigotes infected in Balb/c mouse assessed as inhibition organ parasite burden in spleen at 25 mg/kg, ip for 7 days by Giemsa staining based microscopy; type: functional; conditions: MHOM/IN/80/Dd8, 168 h, time 7 day
J774 [9] = assay: Cytotoxicity against mouse macrophage J774 cells assessed as reduction in cell viability at 50 to 100 uM incubated for 72 hrs by MTT assay; type: toxicity, cell-based; conditions: j774, 72 h, dose 50-100 µM
J774 [10] = assay: Cytotoxicity against mouse macrophage J774 cells assessed as reduction in cell viability at 6.25 to 25 uM incubated for 72 hrs by MTT assay; type: toxicity, cell-based; conditions: j774, 72 h, dose 6.25-25 µM
Leishmania donovani [11] = assay: Antileishmanial activity against Leishmania donovani MHOM/IN/80/Dd8 promastigotes harboring luciferase gene infected in mouse J774 cells assessed as inhibition of parasite viability at 25 uM incubated for 72 hrs by Steady-Glo reagent based luciferase assay relative to control; type: functional; conditions: MHOM/IN/80/Dd8, J774
Leishmania donovani [12] = assay: Antileishmanial activity against Leishmania donovani MHOM/IN/80/Dd8 amastigotes harboring luciferase gene infected in mouse J774 cells assessed as inhibition of parasite viability at 25 uM incubated for 72 hrs by Steady-Glo reagent based luciferase assay relative to control; type: functional; conditions: MHOM/IN/80/Dd8, J774
Leishmania mexicana = assay: Antileishmanial activity against Leishmania mexicana 227 assessed as inhibition of parasite viability; type: functional, organism-based

| SMILES | Activity (J774 [9]) | Activity (J774 [10]) | inhibition at 25 µM (Leishmania donovani [11]) | inhibition at 25 µM (Leishmania donovani [12]) | also measured |
| --- | --- | --- | --- | --- | --- |
| CCCCCCCCCCCCCCCCOP(=O)([O-])OCC[N+](C)(C)C [MILTEFOSINE] |  |  |  |  | IC50 (Leishmania donovani [1]): 6.86 µM; IC50 (Leishmania donovani [2]): 6.12 µM; CC50 at 72 h [3]: 72.4 µM; CC50 at 72 h [4]: 78.6 µM; selectivity ratio [5]: 11.8; selectivity ratio [6]: 12.8; inhibition in vivo at 25 mg/kg (Leishmania donovani [7]): 97.4%; inhibition in vivo at 25 mg/kg (Leishmania donovani [8]): 98.9% |
| COc1ccc2nc3c(c(-c4ccccc4)c2c1)C1=NC(=O)C(C)(C)N1C3 | >= 30% | Non-Toxic | 39% | 31% |  |
| COc1ccc2nc3c(c(-c4ccccc4)c2c1)C1=NC(=O)C2(CCCCC2)N1C3 | >= 30% | Non-Toxic | 39% | 31% |  |
| COc1ccc2nc3c(c(-c4ccccc4)c2c1)C(=O)N(C(C(=O)NC(C)(C)C)c1ccc(C#N)cc1)C3 (stereo unspecified) | >= 30% | Non-Toxic | 40% | 45% |  |
| COc1ccc2nc3c(c(-c4ccccc4)c2c1)C1=NC(=O)C(c2cc(OC)c(OC)c(OC)c2)N1C3 (stereo unspecified) | >= 30% | Non-Toxic | 39% | 31% |  |
| COc1ccc2nc3c(c(-c4ccccc4)c2c1)C(=O)N(C(C(N)=O)c1ccc(F)cc1)C3 (stereo unspecified) | >= 30% | Non-Toxic | 61% | 46% | IC50 (Leishmania donovani [1]): 8.75 µM |
| COc1ccc2nc3c(c(-c4ccccc4)c2c1)C(=O)N(C1(C(=O)NC(C)(C)C)CCCCC1)C3 | >= 30% | Non-Toxic | > 70% | 45% | IC50 (Leishmania donovani [1]): 5.35 µM |
| COc1ccc2nc3c(c(-c4ccccc4)c2c1)C(=O)N(C(C(=O)NC(C)(C)C)c1ccccc1)C3 (stereo unspecified) | >= 30% | Non-Toxic | > 70% | 45% |  |
| COc1ccc2nc3c(c(-c4ccccc4)c2c1)C1=NC(=O)C(c2ccc(Br)cc2)N1C3 (stereo unspecified) | >= 30% | Non-Toxic | 39% | 31% |  |
| COc1ccc2nc3c(c(-c4ccccc4)c2c1)C(=O)N(C1(C(=O)NC(C)(C)C)CCCC1)C3 | >= 30% | Non-Toxic | 40% | 45% |  |
| COc1ccc2nc3c(c(-c4ccccc4)c2c1)C1=NC(=O)C2(CCCC2)N1C3 | >= 30% | Non-Toxic | 39% | 31% |  |
| CCCCCCOc1c(OC)cc(NC(C)CCCN)c2nccc(C)c12 (stereo unspecified) [WR-242511] |  |  |  |  | IC50 (Leishmania mexicana): 2.5 µM |
| CC(C)(C(N)=O)N1Cc2nc3ccc(Cl)cc3c(-c3ccccc3)c2C1=O | >= 30% | Non-Toxic | 61% | 46% |  |
| CC(C)(C)NC(=O)C(C)(C)N1Cc2nc3ccc(O)cc3c(-c3ccccc3)c2C1=O | >= 30% | Non-Toxic | 77.2% | 69% |  |
| COc1ccc2nc3c(c(-c4ccccc4)c2c1)C(=O)N(CC(=O)NC(C)(C)C)C3 | >= 30% | Non-Toxic | 40% | 45% | IC50 (Leishmania donovani [1]): 8.39 µM |
| CC1(C)C(=O)N=C2c3c(nc4ccc(Br)cc4c3-c3ccccc3)CN21 | >= 30% | Non-Toxic | 39% | 31% |  |

| SMILES | Activity (J774 [9]) | Activity (J774 [10]) | inhibition at 25 µM (Leishmania donovani [11]) | inhibition at 25 µM (Leishmania donovani [12]) | also measured |
| --- | --- | --- | --- | --- | --- |
| COc1ccc2nc3c(c(-c4ccccc4)c2c1)C(=O)N(C(C)(C)C(=O)NC(C)(C)C)C3 | >= 30% | Non-Toxic | 40% | 45% |  |
| COc1ccc2nc3c(c(-c4ccccc4)c2c1)C(=O)N(C(C(=O)NC(C)(C)C)c1ccc(O)cc1)C3 (stereo unspecified) | >= 30% | Non-Toxic | 40% | 45% |  |
| COc1ccc2nc3c(c(-c4ccccc4)c2c1)C1=NC(=O)C(c2ccc(C#N)cc2)N1C3 (stereo unspecified) | >= 30% | Non-Toxic | 39% | 31% |  |
| CC(C)(C)NC(=O)C(c1ccc(F)cc1)N1Cc2nc3ccc(O)cc3c(-c3ccccc3)c2C1=O (stereo unspecified) | >= 30% | Non-Toxic | 72.7% | 69% |  |
| COc1ccc2nc3c(c(-c4ccccc4)c2c1)C(=O)N(C(C(=O)NC(C)(C)C)c1cc(OC)c(OC)c(OC)c1)C3 (stereo unspecified) | >= 30% | Non-Toxic | 40% | 45% |  |
| COc1ccc2nc3c(c(-c4ccccc4)c2c1)C(=O)N(C(C(=O)NC(C)(C)C)c1ccc(F)cc1)C3 (stereo unspecified) | >= 30% | Non-Toxic | 40% | 45% |  |
| COc1ccc2nc3c(c(-c4ccccc4)c2c1)C1=NC(=O)C(c2ccccc2)N1C3 (stereo unspecified) | >= 30% | Non-Toxic | 39% | 31% |  |
| CC(C)(C)NC(=O)C(C)(C)N1Cc2nc3ccc(Br)cc3c(-c3ccccc3)c2C1=O | >= 30% | Non-Toxic | > 70% | 45% | IC50 (Leishmania donovani [1]): 10.3 µM |
| COc1ccc2nc3c(c(C)c2c1)C(=O)N(C(C)(C)C(=O)NC(C)(C)C)C3 | >= 30% | Non-Toxic | > 70% | 45% | IC50 (Leishmania donovani [1]): 7.42 µM |
| COc1ccc2nc3c(c(-c4ccccc4)c2c1)C(=O)N(C(C(=O)NC(C)(C)C)c1ccc(Cl)cc1)C3 (stereo unspecified) | >= 30% | Non-Toxic | 40% | 45% | IC50 (Leishmania donovani [1]): 10.5 µM |
| CC(C)(C)NC(=O)C(C)(C)N1Cc2nc3ccccc3c(-c3ccccc3)c2C1=O | >= 30% | Non-Toxic | 40% | 45% |  |
| COc1ccc2nc3c(c(-c4ccccc4)c2c1)C1=NC(=O)C(c2ccc(Cl)cc2)N1C3 (stereo unspecified) | >= 30% | Non-Toxic | 39% | 31% |  |
| CC(C)(C(N)=O)N1Cc2nc3ccccc3c(-c3ccccc3)c2C1=O | >= 30% | Non-Toxic | 61% | 46% |  |
| COc1ccc(C(C(=O)NC(C)(C)C)N2Cc3nc4ccc(OC)cc4c(-c4ccccc4)c3C2=O)cc1 (stereo unspecified) | >= 30% | Non-Toxic | 40% | 45% |  |
| COc1ccc2nc3c(c(-c4ccccc4)c2c1)C(=O)N(C(C(=O)NC(C)(C)C)c1ccc(C(F)(F)F)cc1)C3 (stereo unspecified) | >= 30% | Non-Toxic | > 70% | 45% |  |
